Data taken from the supplement of paper PMC10307832.

Tests used:
Experiment in all cases: relative viability (nuclei count vs DMSO), 5 days (fraction); higher = more cells survive
IU1-47 + Decitabine = compound: CC1=CC(=C(N1C2=CC=C(C=C2)Cl)C)C(=O)CN3CCCCC3 [IU1-47] + Nc1ncn([C@H]2C[C@H](O)[C@@H](CO)O2)c(=O)n1 [Decitabine] (partner 2 µM)
Method in brief: (§1)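 A single step with final 0.05% Triton X-100, 1% formaldehyde and 1 ug/ml Hoechst fixed the cells and stained nuclei 5 days after treatment. Lung cancer cell lines in 1536-well plates had been treated by pin tool the day after seeding with one drug alone or a fixed anchor-drug dose plus five library-drug doses (not always all listed) in √10 steps, and nuclei were counted on 4× images. Relative viability is the ratio of nuclei in treated wells to nuclei in vehicle wells, taken as the median of duplicate plates.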

IU1-47 + Vorinostat = compound: CC1=CC(=C(N1C2=CC=C(C=C2)Cl)C)C(=O)CN3CCCCC3 [IU1-47] + O=C(CCCCCCC(=O)Nc1ccccc1)NO [Vorinostat] (partner 1 µM)
Method in brief: as §1

FG-4592 = compound: Cc1nc(C(=O)NCC(=O)O)c(O)c2ccc(Oc3ccccc3)cc12 [FG-4592]
Method in brief: (§2)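 Five library-drug doses spaced by √10 were pinned onto vehicle-anchored 1536-well plates of lung cancer cell lines that had been kept overnight at 37 °C. Cells went 5 days without medium change, then were fixed, permeabilised and Hoechst-stained together, imaged at 4× and counted by MetaXpress. Viability is the ratio of treated-well to vehicle-well nuclei, taken as a median over plates. Plates required control CV below 25% and at least one doubling.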

IU1-47 = compound: CC1=CC(=C(N1C2=CC=C(C=C2)Cl)C)C(=O)CN3CCCCC3 [IU1-47]
Method in brief: as §2

Question: With UMC-11 as the cell line, how does the relative viability (IU1-47 + Decitabine; first compound 0.08 µM) read?
Answer: The relative viability was 0.664.

Question: And the relative viability (IU1-47 + Decitabine; first compound 0.253 µM)?
Answer: Its relative viability is 0.622.

Question: And the relative viability (IU1-47 + Decitabine; first compound 0.8 µM)?
Answer: The relative viability was 0.571.

Question: What about the relative viability (IU1-47 + Decitabine; first compound 2.53 µM) of the same cell line?
Answer: Its relative viability is 0.581.

Question: And the relative viability (IU1-47 + Decitabine; first compound 8 µM)?
Answer: The relative viability was 0.717.

Question: What about the relative viability (IU1-47 + Vorinostat; first compound 0.08 µM) of the same cell line?
Answer: Its relative viability is 0.409.

Question: And the relative viability (IU1-47 + Vorinostat; first compound 0.253 µM)?
Answer: Its relative viability is 0.408.

Question: And the relative viability (IU1-47 + Vorinostat; first compound 0.8 µM)?
Answer: Its relative viability is 0.374.

Question: What about the relative viability (IU1-47 + Vorinostat; first compound 2.53 µM) of the same cell line?
Answer: The relative viability was 0.413.

Question: What about the relative viability (IU1-47 + Vorinostat; first compound 8 µM) of the same cell line?
Answer: Its relative viability is 0.377.

Question: And the relative viability (FG-4592; 0.08 µM)?
Answer: The relative viability was 0.952.

Question: And the relative viability (FG-4592; 0.253 µM)?
Answer: Its relative viability is 0.928.

Question: What about the relative viability (FG-4592; 0.8 µM) of the same cell line?
Answer: Its relative viability is 0.806.

Question: What about the relative viability (FG-4592; 2.53 µM) of the same cell line?
Answer: The relative viability was 1.07.

Question: What about the relative viability (FG-4592; 8 µM) of the same cell line?
Answer: Its relative viability is 0.804.

Question: What about the relative viability (IU1-47; 0.08 µM) of the same cell line?
Answer: The relative viability was 1.01.

Question: And the relative viability (IU1-47; 0.253 µM)?
Answer: The relative viability was 0.961.

Question: And the relative viability (IU1-47; 0.8 µM)?
Answer: Its relative viability is 1.01.

Question: What about the relative viability (IU1-47; 2.53 µM) of the same cell line?
Answer: The relative viability was 0.991.

Question: And the relative viability (IU1-47; 8 µM)?
Answer: Its relative viability is 0.922.
